pIC50: −log10 of the molar value. Read-outs that look alike come from different tables or passages of the source.
How the values were obtained:
[1] = system: Hsp90; parameters: method as in PMID 16854066; conditions: fluorescence polarization; cited from earlier work
[2] = target: T1, Hsp90N (Homo sapiens, UniProt P07900); assay: Differential scanning fluorimetry (DSF), change of Tm; format: binding; conditions: apo Tm 44.4 °C, Hsp90N 2 μM, inhibitor 200 μM
T1 construct: contains DNA corresponding to residues 1–235 of human Hsp90α; made in house; host or cells: Escherichia coli BL21 (DE3)
Procedure: We also measured the change in the Tm value using differential scanning fluorimetry (DSF) to support direct binding (Fig. 2C).
DSF using a RT-PCR system (CFX connect, BioRad) assessed the stability of Hsp90N in the absence and presence of the hit compounds that were identified by 2D NMR[75]. Once Sypro-Orange (5×) was added into the solution of Hsp90N with each hit compound, the fluorescence from the dye was measured with excitation at 492 nm and emission at 610 nm in a temperature-dependent manner from 30 to 90 °C. The concentrations for Hsp90N and inhibitors were 2 and 200 μM, respectively. As a control, DMSO was mixed with the protein, and the fluorescence was measured with an identical procedure. The mid-point of the melting temperature, Tm, was deduced by calculating the temperature that maximizes the differential curve of the profiles.

[3] = system: Hsp90N; parameters: method as in PMID 27899599; conditions: PubChem BioAssay database AID: 712; cited from earlier work
[4] = system: Hsp90N; parameters: method as in PMID 19519743; conditions: BindingDB; cited from earlier work

CO[C@H]1/C=C\C=C(/C)C(=O)NC2=CC(=O)C(NCCN(C)C)=C(C[C@@H](C)C[C@H](OC)[C@H](O)[C@@H](C)/C=C(\C)[C@@H]1OC(N)=O)C2=O [17-DMAG]
pIC50 [1]: 7.21 | elevated Tm values [2]: 11.3

Cc1cc(SCC(N)=O)nc(SCC(=O)c2ccccc2)n1 [ZINC00421600]
pIC50 [3]: 4.30

Oc1ccc(-c2n[nH]c(=S)n2-c2ccccc2)c(O)c1 [ZINC01264822]
pIC50 [4]: 9.30

CCc1cc(-c2n[nH]cc2-c2ccc3c(c2)OCO3)c(O)cc1O [ZINC18130036]
pIC50 [3]: 5.70
